Peptide text beside a SMILES is read from it.
Assays:
E. coli = assay: PI uptake assay, flow cytometry; type: cell-based; conditions: 4× MIC, 2 h
Description: E. coli were mixed with different concentrations of MSI-1, incubated for 2 h, resuspended by PI solution (20 μg/ml), and ultimately subjected to flow cytometry for PI uptake assay. Calcein-loaded liposomes were prepared to imitate bacterial membrane. Serially diluted peptide was added into liposomes (1:1, v:v) after obtaining the fluorescence intensity at λex/λem=490/520 nm. Once MSI-1 addition, fluorescence intensity was detected at 0, 3, 5, 10, 15 and 20 min. Calcein release rate was calculated as previously described. To observe bacterial morphology, E. coli treated with MSI-1 (32 μg/ml) or PBS for 2 h was collected, fixed by 2.5% glutaraldehyde and subjected to scanning electron microscopy (SEM) assay (SUI510, Hitachi, Japan). In addition, E. coli were resuspended in reaction buffer (60 mM Na2HPO4^. 7H2O, 40 mM NaH2PO4^. H2O, 10 mM KCl, 1 mM MgSO4.7H2O, 0.27% 2-Mercaptoethanol), incubated with ONPG (2.5 mg/ml) and MSI-1 for 2 h. Bacteria envelope integrity was calculated by the percentage of O-nitrophenol production.

pH stability = type: physicochemical
Description: MSI-1 at 2 mg/ml in PBS (pH 7.0), aqueous HCl (pH 3.0) and aqueous NaOH (pH 11.0) were incubated for 2, 4, 12 and 24 h at 37 °C. The remaining MSI-1 was measured by HPLC. In addition, the bacteria colonies survived 1× MIC of HCl or NaOH treated peptide were recorded simultaneously. That is, after 18 h coincubation, the absorbance which represents the bacteria colonies survived, was recorded by a microplate reader at 600 nm.

[1] = 37 °C for up to 7 days, multigelation at -80 °C for 10 times or boiling at 100 °C for 1 h; HPLC and antibacterial activity
Description: MSI-1 were placed at 37 °C for 7 days, repeated multigelation at -80 °C for 10 times or boiled at 100 °C for 1 h, and then subjected to HPLC analysis or antibacterial activity evaluation as above.

in vitro = conditions: mouse, 20% fresh mouse serum
Description: At indicated time points, samples were denatured with equal volumes of 6 M urea and subjected to HPLC analysis or antibacterial activity evaluation.

HaCaT cells = assay: Wound scratch assay; type: cell-based; conditions: cell scratch assay
Description: To further investigate whether MSI-1 could protect from bacterial infection of the skin, mice were anesthetized with pentobarbital sodium (50 mg/kg, i.p) and shaved on the dorsal surfaces. The depilated skin was secured with 2-cm-diameter plastic containers that filled up with boiling water at contact time 10 s. Afterwards, a full-thickness wound (2 cm in diameter) was cut on the burned skin of each mouse. Penicillin-resistant E. coli suspension (100 µl, 1× 10^10 CFU/ml) was slowly inoculated over wound with a pipette tip, and a gentle stream of air was aimed over the inoculation site until skin appeared wet but absent of any standing volume from the inoculum suspension. Two hours later, vehicle (3% CMC-Na), MSI-1 or polymyxin, which was suspended in sterile CMC-Na (3%) in PBS at concentration of 10, 5, 2.5 mg/ml (MSI-1) or 5 mg/ml (polymyxin), was inoculated on the same area with a pipette tip, 1 ml/kg, once a day (n=15 per group). Mice were fed in cages individually to avoid cross infection and were treated daily for 7 consecutive days. At 3rd and 7th days, cutaneous wound healing and bacteria counts in skin lesion were measured. Moreover, 12 h after the last treatment, blood samples were collected from the retro-orbital venous plexus under anesthesia (pentobarbital sodium, 50 mg/kg). […] The contents of TNF-α and IL-6 in skin homogenates and serum were measured by ELISA. […]

C57BL/6 mice = assay: Acute toxicity in mice; type: in vivo; conditions: intraperitoneal, n=6/group
Description: C57BL/6 mice (n=6/group) were intraperitoneally injected with MSI-1 (0, 10, 20, 40, 80 and 100 mg/kg/body weight, respectively). Animals were inspected for adverse effects for 30 min, and survival was monitored for 12 h thereafter. The toxicity severity was classified as Malik U et al previously described.

[2] = tested on: Penicillin-resistant E. coli; assay: Local E. coli infection in scalded mouse model; type: in vivo, mice; conditions: for subeschar colonies reduced to: topical once a day
Description: To further investigate whether MSI-1 could protect from bacterial infection of the skin, mice were anesthetized with pentobarbital sodium (50 mg/kg, i.p) and shaved on the dorsal surfaces. The depilated skin was secured with 2-cm-diameter plastic containers that filled up with boiling water at contact time 10 s. Afterwards, a full-thickness wound (2 cm in diameter) was cut on the burned skin of each mouse. Penicillin-resistant E. coli suspension (100 µl, 1× 10^10 CFU/ml) was slowly inoculated over wound with a pipette tip, and a gentle stream of air was aimed over the inoculation site until skin appeared wet but absent of any standing volume from the inoculum suspension. Two hours later, vehicle (3% CMC-Na), MSI-1 or polymyxin, which was suspended in sterile CMC-Na (3%) in PBS at concentration of 10, 5, 2.5 mg/ml (MSI-1) or 5 mg/ml (polymyxin), was inoculated on the same area with a pipette tip, 1 ml/kg, once a day (n=15 per group). Mice were fed in cages individually to avoid cross infection and were treated daily for 7 consecutive days. At 3rd and 7th days, cutaneous wound healing and bacteria counts in skin lesion were measured. Moreover, 12 h after the last treatment, blood samples were collected from the retro-orbital venous plexus under anesthesia (pentobarbital sodium, 50 mg/kg). Finally, all animals were euthanized by cervical dislocation to collect the lung samples for counting live bacteria. The contents of TNF-α and IL-6 in skin homogenates and serum were measured by ELISA. Skin lesion was fixed by 4% paraformaldehyde for H&E staining. The expression levels of EGF and VEGF in skin lesion were examined by immunohistochemistry. In addition, the wound scratch assay was also performed on HaCaT cells to further test whether MSI-1 improved wound healing by promoting keratinocyte migration.

[3] = tested on: S. epidermidis (methicillin-resistant); assay: Time-killing assay; type: cell-based; conditions: 4× MIC, time-kill curve
Description: (§1) Bacteria were incubated with MSI-1, penicillin G sodium salt, vancomycin or methicillin at 4× MIC. Samples were removed at 0, 0.5, 1, 2, 4, and 8 h for bacterial counts.

[4] = tested on: ndm-1-carrying recombinant E. coli; assay: Time-killing assay; type: cell-based; conditions: 4× MIC, time-kill curve
Description: as §1

CC[C@H](C)[C@H](NC(=O)CN)C(=O)N[C@@H](Cc1c[nH]c2ccccc12)C(=O)N[C@@H](CCCCN)C(=O)N[C@@H](Cc1ccccc1)C(=O)N[C@@H](CC(C)C)C(=O)N[C@@H](CCCCN)C(=O)N[C@@H](CCCCN)C(=O)N[C@@H](C)C(=O)N[C@@H](CCCCN)C(=O)N[C@@H](CCCCN)C(=O)N[C@@H](Cc1ccccc1)C(=O)N[C@@H](Cc1c[nH]c2ccccc12)C(=O)N[C@@H](CCCCN)C(N)=O [MSI-1] (H-GIWKFLKKAKKFWK-NH2)
PI-positive rate (E. coli): 80.4%
percentage of remaining MSI-1 (pH stability; 2 mg/ml in aqueous HCl (pH 3.0), aqueous NaOH (pH 11.0) or PBS (pH 7.0), 37 °C, within 24 h, HPLC): 99%-100%
effect of HCl (pH 3.0) and NaOH (pH 11.0) treatment on MIC against bacteria (pH stability; treated peptide at 1× MIC, 18 h, 600 nm): did not affect the MIC
thermal stability [1]: maintained its structure and potent antimicrobial activity
remaining at 0.5 h, 1.6 mg/ml (in vitro): 92.5%
remaining at 2 h, 1.6 mg/ml (in vitro): 53.5%
migration of HaCaT cells (HaCaT cells): could not promote the migration
adverse events (C57BL/6 mice; 20 mg/kg): no immediate adverse events
adverse effects at approximately 5 min post injection (C57BL/6 mice; dose of peptide above 40 mg/kg): one mouse in the MS-1-treated group exhibited narrowing of the eyes
TNF-α and IL-6 in skin lesion homogenate ([2]; 10 mg/kg, 7th day, ELISA): strongly reduced
subeschar colonies reduced to ([2]; 10 mg/kg, after 3 days): 38.6%
subeschar colonies reduced to ([2]; 10 mg/kg, after 7 days): 49%
wound closure ([2]; 3rd and 7th days, especially at 10 mg/kg): significantly improved wound closure
bacterial colonies in the lung and blood ([2]; 7th day, MSI-1 5 and 10 mg/kg, polymyxin B, p<0.01 vs the model group): obviously decreased
expression of EGF and VEGF in the burned and infected skin ([2]; immunohistochemistry): no obvious effect
reduction in CFU counts [3]: approximately 5 log units
time to thorough bacteria elimination [3]: ≤ 240 min
time to thorough elimination of the bacteria [4]: ≤ 4 h

Source: publication PMC6956804, “Potent antibacterial activity of MSI-1 derived from the magainin 2 peptide against drug-resistant bacteria” (Theranostics, 2020)
